This passage reports growth results from ChEMBL document CHEMBL3994622, “Design and synthesis of new RAF kinase-inhibiting antiproliferative quinoline derivatives. Part 2: Diarylurea derivatives” (Eur J Med Chem, 2017).

Holding throughout (type): functional
One assay relates to MDA-MB-468. Put plainly: Growth inhibition of human MDA-MB-468 cells assessed as cell growth at 0.03 uM incubated for 48 hrs by sulforhodamine B assay relative to control. The conditions noted are these: MDA-MB-468, 48 h, read-out: Activity. Background: In SRB staining, fixed cells bind dye roughly in proportion to their protein.
In another assay the test system is LOX IMVI. Put plainly: Growth inhibition of human LOXIMVI cells assessed as cell growth at 0.03 uM incubated for 48 hrs by sulforhodamine B assay relative to control. The conditions noted are these: read-out: Activity.
Another assay relates to SK-MEL-2. Put plainly: Growth inhibition of human SK-MEL-2 cells assessed as cell growth at 0.005 uM incubated for 48 hrs by sulforhodamine B assay relative to control. The conditions noted are these: SK-MEL-2, 48 h, read-out: Activity.
A further assay relates to K562. Put plainly: Growth inhibition of human K562 cells assessed as cell growth at 0.5 uM incubated for 48 hrs by sulforhodamine B assay relative to control. Particulars: K562, 48 h, read-out: Activity.
The test system of another assay is ACHN. Put plainly: Growth inhibition of human ACHN cells assessed as cell growth at 0.5 uM incubated for 48 hrs by sulforhodamine B assay relative to control. Particulars: read-out: Activity.
In assay [1] the test system is SK-MEL-28. Nature of the assay: Growth inhibition of human SK-MEL-28 cells assessed as cell growth at 5 uM incubated for 48 hrs by sulforhodamine B assay relative to control. Particulars: SK-MEL-28, 48 h, read-out: Activity.
A further assay deals with NCI-H23. Nature of the assay: Growth inhibition of human NCI-H23 cells assessed as cell growth at 50 uM incubated for 48 hrs by sulforhodamine B assay relative to control. Particulars: NCI-H23, 48 h, read-out: Activity.
In another assay the test system is HCC 2998. Put plainly: Growth inhibition of human HCC2998 cells assessed as cell growth at 0.005 uM incubated for 48 hrs by sulforhodamine B assay relative to control. Particulars: HCC 2998, 48 h, read-out: Activity.
Another assay deals with SK-OV-3. Nature of the assay: Growth inhibition of human SKOV3 cells assessed as cell growth at 5 uM incubated for 48 hrs by sulforhodamine B assay relative to control. The conditions noted are these: SK-OV-3, 48 h, read-out: Activity.
Another assay deals with SNB-19. Nature of the assay: Growth inhibition of human SNB19 cells assessed as cell growth at 0.05 uM incubated for 48 hrs by sulforhodamine B assay relative to control. The conditions noted are these: SNB-19, 48 h, read-out: Activity.
For the next assay, the system named is HOP-62. Nature of the assay: Growth inhibition of human HOP62 cells assessed as cell growth at 0.005 uM incubated for 48 hrs by sulforhodamine B assay relative to control. The conditions noted are these: HOP-62, 48 h, read-out: Activity.
For assay [2], the system named is SF-268. Nature of the assay: Growth inhibition of human SF268 cells assessed as cell growth at 0.5 uM incubated for 48 hrs by sulforhodamine B assay relative to control. Particulars: SF-268, 48 h, read-out: Activity.
In a further assay the test system is OVCAR-8. Put plainly: Growth inhibition of human OVCAR8 cells assessed as cell growth at 0.05 uM incubated for 48 hrs by sulforhodamine B assay relative to control. The conditions noted are these: OVCAR-8, 48 h, read-out: Activity.
Assay [3] relates to SK-MEL-28. Put plainly: Growth inhibition of human SK-MEL-28 cells assessed as cell growth at 50 uM incubated for 48 hrs by sulforhodamine B assay relative to control. Particulars: SK-MEL-28, 48 h, read-out: Activity.
Assay [4] deals with SF-268. Put plainly: Growth inhibition of human SF268 cells assessed as cell growth at 50 uM incubated for 48 hrs by sulforhodamine B assay relative to control. Particulars: SF-268, 48 h, read-out: Activity.
The test system of assay [5] is SK-MEL-5. Put plainly: Growth inhibition of human SK-MEL-5 cells assessed as cell growth at 5 uM incubated for 48 hrs by sulforhodamine B assay relative to control. The conditions noted are these: SK-MEL-5, 48 h, read-out: Activity.
Assay [6] concerns RPMI-8226. Nature of the assay: Growth inhibition of human RPMI8226 cells assessed as cell growth at 0.5 uM incubated for 48 hrs by sulforhodamine B assay relative to control. Particulars: RPMI-8226, 48 h, read-out: Activity.
Assay [7] relates to MOLT-4. Nature of the assay: Growth inhibition of human MOLT4 cells assessed as cell growth at 5 uM incubated for 48 hrs by sulforhodamine B assay relative to control. Particulars: MOLT-4, 48 h, read-out: Activity.
The subject of assay [8] is RPMI-8226. Put plainly: Growth inhibition of human RPMI8226 cells assessed as cell growth at 0.005 uM incubated for 48 hrs by sulforhodamine B assay relative to control. Particulars: RPMI-8226, 48 h, read-out: Activity.
In assay [9] the test system is MOLT-4. Put plainly: Growth inhibition of human MOLT4 cells assessed as cell growth at 0.005 uM incubated for 48 hrs by sulforhodamine B assay relative to control. The conditions noted are these: MOLT-4, 48 h, read-out: Activity.
The subject of another assay is HOP-92. Nature of the assay: Growth inhibition of human HOP92 cells assessed as cell growth at 0.005 uM incubated for 48 hrs by sulforhodamine B assay relative to control. The conditions noted are these: HOP-92, 48 h, read-out: Activity.
For assay [10], the system named is EKVX. Put plainly: Growth inhibition of human EKVX cells assessed as cell growth at 50 uM incubated for 48 hrs by sulforhodamine B assay relative to control. Particulars: read-out: Activity.
For assay [11], the system named is SF-295. Put plainly: Growth inhibition of human SF295 cells assessed as cell growth at 0.5 uM incubated for 48 hrs by sulforhodamine B assay relative to control. The conditions noted are these: SF-295, 48 h, read-out: Activity.
Another assay relates to HL-60(TB). Nature of the assay: Growth inhibition of human HL-60(TB) cells assessed as cell growth at 0.005 uM incubated for 48 hrs by sulforhodamine B assay relative to control. The conditions noted are these: HL-60, 48 h, read-out: Activity.
The test system of the next assay is MCF7. Nature of the assay: Growth inhibition of human MCF7 cells assessed as cell growth at 0.05 uM incubated for 48 hrs by sulforhodamine B assay relative to control. Particulars: MCF7, 48 h, read-out: Activity.
A further assay concerns MDA-MB-231. Nature of the assay: Growth inhibition of human MDA-MB-231 cells assessed as cell growth at 0.05 uM incubated for 48 hrs by sulforhodamine B assay relative to control. The conditions noted are these: MDA-MB-231, 48 h, read-out: Activity.
A further assay relates to NCI-H522. Nature of the assay: Growth inhibition of human NCI-H522 cells assessed as cell growth at 0.005 uM incubated for 48 hrs by sulforhodamine B assay relative to control. The conditions noted are these: NCI-H522, 48 h, read-out: Activity.
Assay [12] relates to EKVX. Nature of the assay: Growth inhibition of human EKVX cells assessed as cell growth at 0.005 uM incubated for 48 hrs by sulforhodamine B assay relative to control. Particulars: read-out: Activity.
The subject of the next assay is NCI-H460. Put plainly: Growth inhibition of human NCI-H460 cells assessed as cell growth at 50 uM incubated for 48 hrs by sulforhodamine B assay relative to control. The conditions noted are these: NCI-H460, 48 h, read-out: Activity.
In assay [13] the test system is SF-295. Nature of the assay: Growth inhibition of human SF295 cells assessed as cell growth at 0.05 uM incubated for 48 hrs by sulforhodamine B assay relative to control. The conditions noted are these: SF-295, 48 h, read-out: Activity.
The subject of a further assay is KM12. Put plainly: Growth inhibition of human KM12 cells assessed as cell growth at 50 uM incubated for 48 hrs by sulforhodamine B assay relative to control. The conditions noted are these: KM12, 48 h, read-out: Activity.
Assay [14] concerns SK-MEL-5. Put plainly: Growth inhibition of human SK-MEL-5 cells assessed as cell growth at 0.05 uM incubated for 48 hrs by sulforhodamine B assay relative to control. The conditions noted are these: SK-MEL-5, 48 h, read-out: Activity.
In another assay the test system is A498. Put plainly: Growth inhibition of human A498 cells assessed as cell growth at 50 uM incubated for 48 hrs by sulforhodamine B assay relative to control. Particulars: A498, 48 h, read-out: Activity.
Another assay deals with PC-3. Put plainly: Growth inhibition of human PC3 cells assessed as cell growth at 5 uM incubated for 48 hrs by sulforhodamine B assay relative to control. Particulars: PC-3, 48 h, read-out: Activity.

`Cc1nc2cc(O)c(O)cc2cc1Oc1ccc(NC(=O)Nc2ccc(Cl)c(Cl)c2)cc1`: the growth at 0.03 µM in the assay with MDA-MB-468 worked out at 105%.
Turning to `COc1cc2cc(Oc3ccc(NC(=O)Nc4ccc(Cl)c(C(F)(F)F)c4)cc3)c(C)nc2cc1OC`, the growth at 0.03 µM in the assay on LOX IMVI came to 99%.
Turning to `COc1cc2cc(Oc3ccc(NC(=O)Nc4cccc(C(F)(F)F)c4)cc3)c(C)nc2cc1OC`, the growth at 0.005 µM amounted to 102% with SK-MEL-2; 99% with HCC 2998; 95% with HOP-62; 103% in the assay on RPMI-8226 [8]; 97% in the assay on MOLT-4 [9]; 96% in the assay on HOP-92. Moreover, the results for the growth at 0.005 µM in the assay with HL-60(TB), in the assay with NCI-H522 and with EKVX [12] were 104%, 86% and 105%, respectively. Further, the growth at 0.5 µM in the assay with K562 turned out to be 93%; with ACHN, 95%; in the assay on SF-268 [2], 96%; with RPMI-8226 [6], 86%; in the assay with SF-295 [11] it was 86%. Besides, the growth at 5 µM was 21% in the assay with SK-MEL-28 [1]; 18% with SK-OV-3; -35% in the assay with SK-MEL-5 [5]; 4% in the assay with MOLT-4 [7]; 3% in the assay with PC-3. Besides, the growth at 50 µM in the assay with NCI-H23 is -42%; in the assay with SK-MEL-28 [3] it was -74%; with SF-268 [4], -32%; with EKVX [10] it was -48%; with NCI-H460 it was -60%; with KM12 it was -59%. Also, the growth at 50 µM in the assay with A498 is -65%. For the same compound, the growth at 0.05 µM in the assay on SNB-19 is 91%; in the assay on OVCAR-8 it was 103%; in the assay on MCF7 it was 91%; in the assay on MDA-MB-231, 95%; in the assay with SF-295 [13], 91%; in the assay on SK-MEL-5 [14], 92%.
